The values that follow come from patent publication US20260217688A1, “INHIBITORS OF JAK2” (Llydaw Therapeutics, Inc., priority 2022, published 2026).

The nature of data set [1]: Proliferation inhibition assay (CellTiter-Glo), Ba/F3 JAK2 wt. In kind it is cell-based. The conditions noted are these: mouse, Ba/F3 (JAK2 wt) cells. As to the method:
(§1) Ba/F3 (JAK2 wt) (ABM, T3076) cells and Ba/F3 (JAK2 V617F) (WuXi AppTec) cells were grown in RPMI-1640 (Gibco, cat. number 21870) supplemented with 10% FBS (Hyclone Laboratories Inc, Cat #SV30160.03), 1× Antibiotic-antimycotic (Gibco, Cat #15240-062), 2× Sodium pyruvate (Paneco, cat #F023), 2× Essential amino acids (Paneco, cat #F115/100), 1× Non-Essential amino acids (Paneco, cat #F116) at 37° C. in 5% CO2 atmosphere.
(§2) For the proliferation inhibition assay Ba/F3 (JAK2 wt) and Ba/F3 (JAK2 V617F) cells were seeded into a CellBIND® 384-well Flat Clear Bottom Black Polystyrene Microplates (Corning, USA, Cat #3770) at a density of 4000 cells per well in complete culture medium with or without 10 ng/ml rmIL-3 (RD systems, USA, Cat #403-ML-025) using Biomek FX/NX (384) liquid handler, 45 μl of cell suspension in complete culture medium per well. 500× compound's stocks in DMSO (Sigma Cat #D2650) were prepared in compounds plate (Diamond Well Plate, Axigen, Cat #P-384-120 SQ-C-S) applying Biomek 2000. 1 μl of 500× compounds stock was added to 49 μl of complete culture medium into Dilution plate (Diamond Well Plate, Axigen, Cat #P-384-120 SQ-C-S), mixed and then 5 μl of 10× compounds solution was transferred to cells using Biomek FX/NX (384) liquid handler. The centrifugation at 100 g for 1 min at Eppendorf 5810 followed. Final DMSO concentration in assay was 0.2%. All treatments were performed in technical and biological duplicates. Treated cells were incubated for 72 h at 37° C. with 5% CO2.
(§3) After 3 days of incubation, CellTiter-Glo Luminescent Cell Viability Assay (Promega) was performed. 10 μl of CellTiter-Glo (Promega, CAT #G7572) was added to the cells using Biomek FX/NX (384) liquid handler. The assay plate was centrifuged at 100 g for 1 min and luminescence signal was measured using Microplate Reader (CLARIOStar).
A general note: ATP-based viability assays read luminescence as a measure of living cells.

The nature of data set [2]: Proliferation inhibition assay (CellTiter-Glo), Ba/F3 JAK2 V617F. In kind it is cell-based. The conditions noted are these: mouse, Ba/F3 (JAK2 V617F) cells; with 10 ng/ml rmIL-3, 72 h; read-out: Ba/F3 JAK2 V617F + IL3, CC50 3 days. As to the method:
as §1, §2, §3

The test system of another data set is Ba/F3 (JAK2 V617F) cells. The description is as above. In kind it is cell-based. The note with it: Mus musculus, BaF3; without IL3, 72 h; read-out: Ba/F3 JAK2 V617F, CC50 3 days. As to the method: as §1, §2, §3
The target of the next data set is T1, JAK2 JH2 (Homo sapiens, UniProt O60674).
T1 construct: Enzyme: JAK2 JH2, His-Avi-Tag, Biotin-Labeled (BPS Bioscience, Cat #79074) 1 nM; His; purchased BPS Bioscience 79074
T1 sequence (O60674 545-809 limits assumed): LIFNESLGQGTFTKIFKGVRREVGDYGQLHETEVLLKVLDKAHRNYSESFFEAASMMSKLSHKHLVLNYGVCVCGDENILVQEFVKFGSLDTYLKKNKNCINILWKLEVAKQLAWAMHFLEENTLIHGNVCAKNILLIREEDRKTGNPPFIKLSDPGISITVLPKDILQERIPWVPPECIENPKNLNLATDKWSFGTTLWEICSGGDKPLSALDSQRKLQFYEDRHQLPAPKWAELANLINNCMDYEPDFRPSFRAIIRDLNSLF
Kind of data set: JAK2 JH2 TR-FRET Assay. The conditions noted are these: JAK2 JH2 1 nM, Tracer ZE84-0003 10 nM. In kind it is binding. How it is done: Assay Buffer 1×: • 20 mM HEPES pH 7.2-7.4; • 10 mM MgCl2; • 0.015% Brij-35; • 2 mM DTT; • 0.05 mg/ml BSA.
Final assay concentrations: • DMSO: 0.25%; • Streptavidin Tb-cryptate (Cisbio, Cat #610SATLB) 0.2 nM; • Enzyme: JAK2 JH2, His-Avi-Tag, Biotin-Labeled (BPS Bioscience, Cat #79074) 1 nM; • Probe: Tracer ZE84-0003 (ChemRar) 10 nM.
Materials: • Reaction plate: ProxiPlate-384 Plus White Plate (PerkinElmer); • Dilution plate: Diamond Well Plate (Axygen, Cat #P-384-120 SQ-C-S); • Compounds plate: Diamond Well Plate (Axygen, Cat #P-384-120 SQ-C-S).
Assay protocol: • 1. Prepare 400× solutions of compounds in DMSO into Compounds plate; • 2. Prepare Dilution plate: add 39 μL of 1× Assay buffer per well of Dilution plate; • 3. Prepare 2×Tb-cryptate mix in 1× Assay buffer. Add 10 μL of 2×Tb-cryptate mix to K-(Tb-cryptate and Probe without Enzyme) wells and blank (Tb-cryptate without Probe and Enzyme) wells; • 4. Add JAK2 JH2 into the rest of 2×Tb-cryptate mix to make 2×JAK2 JH2+Tb-cryptate mix. Add 10 μL per well into Reaction plate; • 5. Centrifuge plate at 200 g for 1 min; • 6. Dilute 1 μL of 400× compounds in 39 μL 1× Assay buffer in Dilution plate; • 7. Add 2 μL of 10× compounds from Dilution plate to Reaction plate with 10 μL of JAK2 JH2+Tb-cryptate mix; • 8. Centrifuge plate at 200 g for 1 min; • 9. Pre-incubate Reaction plate with compounds 15 min; • 10. Prepare 2.5× Tracer mix; • 11. Add 8 μL of 2.5× Tracer mix into appropriate wells of Reaction plate; • 12. Centrifuge plate at 800 g for 3 min; • 13. Incubate at rt for 15 min; • 14. Measure Fluorescence using Microplate Reader (Ex: TR, Em1/Em2: 482/520). The results of this assay are shown in the Table B. The values of EC50 shown as a letters A-D, where: A≤0.01 μM; 0.01 μM<B≤0.05 μM; 0.05 μM<C≤0.1 μM; D>0.1.
A general note: Time-resolved FRET reads energy transfer from a long-lived donor to a nearby acceptor.

Setting [3] is: with 10 ng/ml rmIL-3, 72 h, read-out: Ba/F3 JAK2 wt + IL3, CC50 3 days.

The term EC50 denotes the concentration that produces a half-maximal response. A low value points to an effect from little substance. As for `COc1c(Nc2nc(Nc3cnn(C)c3)ncc2C(N)=O)cccc1-c1ncn(C)n1` [Compound 1, 4-((2-Methoxy-3-(1-methyl-1H-1,2,4-triazol-3-yl)phenyl)amino)-2-((1-methyl-1H-pyrazol-4-yl)amino)pyrimidine-5-carboxamide], the CC50 at 72 h was more than 10 µM in data set [1] (setting [3]); more than 10 µM in data set [1] (without IL3, 72 h, read-out: Ba/F3 JAK2 wt, CC50 3 days); 5 to 10 µM in data set [2]. Also, the CC50 in the data set with Ba/F3 (JAK2 V617F) cells was 1 to 5 µM. At JAK2 JH2, this compound registered an EC50 of 0.01 to 0.05 µM.
As to `COc1c(Nc2nc(Nc3cnn(C45CC6CC(CC(C6)C4)C5)c3)ncc2C(N)=O)cccc1-c1ccccn1` [Compound 41, 2-[[1-(1-adamantyl)pyrazol-4-yl]amino]-4-[2-methoxy-3-(2-pyridyl)anilino]pyrimidine-5-carboxamide], in data set [1] (setting [3]), the CC50 at 72 h was in the range of 5 to 10 µM. The CC50 in the data set on Ba/F3 (JAK2 V617F) cells was 1 to 5 µM. The compound also yielded an EC50 on JAK2 JH2 of more than 0.1 µM.
`COc1c(Nc2nc(Nc3cnn(CCN(CC(C)C)CC(C)C)c3)ncc2C(N)=O)cccc1-c1ccccn1` [Compound 42, 2-[[1-[2-(diisobutylamino)ethyl]pyrazol-4-yl]amino]-4-[2-methoxy-3-(2-pyridyl)anilino]pyrimidine-5-carboxamide]: in data set [1] (setting [3]), the CC50 at 72 h lay within 5 to 10 µM. Also, the CC50 with Ba/F3 (JAK2 V617F) cells lay in the range of 1 to 5 µM. Besides, the EC50 at JAK2 JH2 was more than 0.1 µM.
As to `COc1c(Nc2nc(Nc3cnn(C4CCOCC4)c3)ncc2C(N)=O)cccc1-c1nc2ccccc2o1` [Compound 44, 4-[3-(1,3-benzoxazol-2-yl)-2-methoxy-anilino]-2-[(1-tetrahydropyran-4-ylpyrazol-4-yl)amino]pyrimidine-5-carboxamide], the CC50 at 72 h in data set [1] (setting [3]) lay within 1 to 5 µM. Moreover, the CC50 in the data set with Ba/F3 (JAK2 V617F) cells is not above 0.5 µM. The same compound yielded an EC50 at JAK2 JH2 of 0.01 to 0.05 µM.
Turning to `COc1c(Nc2nc(Nc3cnn(C4CCCCC4)c3)ncc2C(N)=O)cccc1-c1nc2ccccc2o1` [Compound 45, 4-[3-(1,3-benzoxazol-2-yl)-2-methoxy-anilino]-2-[(1-cyclohexylpyrazol-4-yl)amino]pyrimidine-5-carboxamide], the CC50 at 72 h in data set [1] (setting [3]) was 5 to 10 µM. Also, the CC50 in the data set on Ba/F3 (JAK2 V617F) cells was in the range of 0.5 to 1 µM. On JAK2 JH2, this compound gave an EC50 of more than 0.1 µM.
`COc1c(Nc2nc(Nc3cnn(CCCN(C)C)c3)ncc2C(N)=O)cccc1-c1nc2ccccc2o1` [Compound 46, 4-[3-(1,3-benzoxazol-2-yl)-2-methoxy-anilino]-2-[[1-[3-(dimethylamino)propyl]pyrazol-4-yl]amino]pyrimidine-5-carboxamide]: the CC50 at 72 h in data set [1] (setting [3]) was in the range of 1 to 5 µM. Moreover, the CC50 in the data set on Ba/F3 (JAK2 V617F) cells was not above 0.5 µM. This compound also showed an EC50 on JAK2 JH2 of 0.05 to 0.1 µM.
Take `COc1c(Nc2nc(Nc3cnn(C4CCN(C)CC4)c3)ncc2C(N)=O)cccc1-c1ccccn1` [Compound 47]: the CC50 at 72 h in data set [1] (setting [3]) was in the range of 5 to 10 µM. Moreover, the CC50 with Ba/F3 (JAK2 V617F) cells fell in the range of 1 to 5 µM. This compound also had an EC50 on JAK2 JH2 of more than 0.1 µM.
Turning to `COc1c(Nc2nc(Nc3cnn(C4CCN(C(C)C)CC4)c3)ncc2C(N)=O)cccc1-c1ccccn1` [Compound 48, 2-[[1-(1-isopropyl-4-piperidyl)pyrazol-4-yl]amino]-4-[2-methoxy-3-(2-pyridyl)anilino]pyrimidine-5-carboxamide], in data set [1] (setting [3]), the CC50 at 72 h was 1 to 5 µM. Also, the CC50 with Ba/F3 (JAK2 V617F) cells is not above 0.5 µM. In addition, the EC50 at JAK2 JH2 is 0.05 to 0.1 µM.
Taken in the same sequence, the figures for `COc1c(Nc2nc(Nc3cnn(C45CC6CC(CC(C6)C4)C5)c3)ncc2C(N)=O)cccc1-c1nc2ccccc2o1` [Compound 49, 2-[[1-(1-adamantyl)pyrazol-4-yl]amino]-4-[3-(1,3-benzoxazol-2-yl)-2-methoxy-anilino]pyrimidine-5-carboxamide] were 5 to 10 µM, 5 to 10 µM and more than 0.1 µM.
For the compound `COCCn1cc(Nc2ncc(C(N)=O)c(Nc3cccc(-c4nc5ccccc5o4)c3OC)n2)cn1` [Compound 50], the CC50 at 72 h in data set [1] (setting [3]) was more than 10 µM. In the data set on Ba/F3 (JAK2 V617F) cells, the CC50 was not above 0.5 µM. Besides, the EC50 at JAK2 JH2 was 0.01 to 0.05 µM.
With `COCCn1cc(Nc2ncc(C(N)=O)c(Nc3cccc(-c4ncn(C)n4)c3OC)n2)cn1` [Compound 51], in data set [1] (setting [3]), the CC50 at 72 h was more than 10 µM. The CC50 in the data set with Ba/F3 (JAK2 V617F) cells lay in the range of 1 to 5 µM. The compound further gave an EC50 on JAK2 JH2 of 0.01 to 0.05 µM.
Taken in the same sequence, the figures for `COCCCn1cc(Nc2ncc(C(N)=O)c(Nc3cccc(-c4nc5ccccc5o4)c3OC)n2)cn1` [Compound 52, 4-[3-(1,3-benzoxazol-2-yl)-2-methoxy-anilino]-2-[[1-(3-methoxypropyl)pyrazol-4-yl]amino]pyrimidine-5-carboxamide] were 1 to 5 µM, not above 0.5 µM and 0.01 to 0.05 µM.
In the case of `COCCCn1cc(Nc2ncc(C(N)=O)c(Nc3cccc(-c4ncn(CCCOC)n4)c3OC)n2)cn1` [Compound 53], in data set [1] (setting [3]), the CC50 at 72 h is more than 10 µM. For the same compound, the CC50 in the data set with Ba/F3 (JAK2 V617F) cells was 1 to 5 µM. The EC50 on JAK2 JH2 is 0.01 to 0.05 µM.
For `CCOCCn1cc(Nc2ncc(C(N)=O)c(Nc3cccc(-c4nc5ccccc5o4)c3OC)n2)cn1` [Compound 54], the CC50 at 72 h in data set [1] (setting [3]) fell in the range of 1 to 5 µM. Also, in the data set on Ba/F3 (JAK2 V617F) cells, the CC50 was not above 0.5 µM. Besides, the EC50 on JAK2 JH2 was in the range of 0.01 to 0.05 µM.
As to `CCOCCn1cc(Nc2ncc(C(N)=O)c(Nc3cccc(-c4ncn(C)n4)c3OC)n2)cn1` [Compound 55, 2-[[1-(2-ethoxyethyl)pyrazol-4-yl]amino]-4-[2-methoxy-3-(1-methyl-1,2,4-triazol-3-yl)anilino]pyrimidine-5-carboxamide], the CC50 at 72 h in data set [1] (setting [3]) is more than 10 µM. Moreover, the CC50 in the data set with Ba/F3 (JAK2 V617F) cells is 1 to 5 µM. At JAK2 JH2, the EC50 was in the range of 0.01 to 0.05 µM.
For the compound `COc1c(Nc2nc(Nc3cnn(CC(C)C)c3)ncc2C(N)=O)cccc1-c1nc2ccccc2o1` [Compound 56, 4-[3-(1,3-benzoxazol-2-yl)-2-methoxy-anilino]-2-[(1-isobutylpyrazol-4-yl)amino]pyrimidine-5-carboxamide], the CC50 at 72 h in data set [1] (setting [3]) lay within 5 to 10 µM. Moreover, the CC50 with Ba/F3 (JAK2 V617F) cells lay in the range of 0.5 to 1 µM. In addition, on JAK2 JH2, the EC50 is more than 0.1 µM.
As to `COc1c(Nc2nc(Nc3cnn(CC(F)(F)F)c3)ncc2C(N)=O)cccc1-c1nc2ccccc2o1` [Compound 57, 4-[3-(1,3-benzoxazol-2-yl)-2-methoxy-anilino]-2-[[1-(2,2,2-trifluoroethyl)pyrazol-4-yl]amino]pyrimidine-5-carboxamide], in data set [1] (setting [3]), the CC50 at 72 h was more than 10 µM. Further, in the data set on Ba/F3 (JAK2 V617F) cells, the CC50 is more than 10 µM. On JAK2 JH2, this compound showed an EC50 of more than 0.1 µM.
